According to patent publication US12365696B2, “Small-molecule focal adhesion kinase (FAK) inhibitors” (DANA-FARBER CANCER INSTITUTE, INC., priority 2019, dated 2025):
Read-outs that look alike come from different tables or passages of the source.

Tests used:
Test in all cases: KINOMEscan
Format in all cases: binding
[1] = molecular target: ABL1(H396P)-nonphosphorylated (Homo sapiens (Human), UniProt P00519, H396P); conditions: 10000 nM, read-out: Percent Control
ADCK3 = ADCK3 (Homo sapiens (Human), UniProt Q8NI60); conditions: ADCK3, 10000 nM; read-out: Percent Control
CDC2L1 = CDC2L1 (Homo sapiens (Human), UniProt P21127); conditions: CDC2L1, 10000 nM; read-out: Percent Control
CDC2L2 = CDC2L2 (Homo sapiens (Human), UniProt Q9UQ88); conditions: CDC2L2, 10000 nM; read-out: Percent Control
CDK5 = CDK5 (Homo sapiens (Human), UniProt Q00535); conditions: CDK5, 10000 nM; read-out: Percent Control
CSNK1A1L = CSNK1A1L (Homo sapiens (Human), UniProt Q8N752); conditions: 10000 nM, read-out: Percent Control
CSNK2A2 = CSNK2A2 (Homo sapiens (Human), UniProt P19784); conditions: CSNK2A2, 10000 nM; read-out: Percent Control
DCAMKL2 = DCAMKL2 (Homo sapiens (Human), UniProt Q8N568); conditions: DCAMKL2, 10000 nM; read-out: Percent Control
DMPK = DMPK (Homo sapiens (Human), UniProt Q09013); conditions: 10000 nM, read-out: Percent Control
EPHB1 = EPHB1 (Homo sapiens (Human), UniProt P54762); conditions: EPHB1, 10000 nM; read-out: Percent Control
EPHB6 = EPHB6 (Homo sapiens (Human), UniProt O15197); conditions: EPHB6, 10000 nM; read-out: Percent Control
FAK = FAK (Homo sapiens (Human), UniProt Q05397); conditions: 10000 nM, read-out: Percent Control
INSRR = INSRR (Homo sapiens (Human), UniProt P14616); conditions: 10000 nM, read-out: Percent Control
JNK2 = JNK2 (Homo sapiens (Human), UniProt P45984); conditions: JNK2, 10000 nM; read-out: Percent Control
KIT(A829P) = KIT(A829P) (Homo sapiens (Human), UniProt P10721, A829P); conditions: 10000 nM, read-out: Percent Control
KIT(V559D) = KIT(V559D) (Homo sapiens (Human), UniProt P10721, V559D); conditions: 10000 nM, read-out: Percent Control
KIT-autoinhibited = KIT-autoinhibited (Homo sapiens (Human), UniProt P10721); conditions: 10000 nM, read-out: Percent Control
LIMK1 = LIMK1 (Homo sapiens (Human), UniProt P53667); conditions: LIMK1, 10000 nM; read-out: Percent Control
LRRK2(G2019S) = LRRK2(G2019S) (Homo sapiens (Human), UniProt Q5S007, G2019S); conditions: 10000 nM, read-out: Percent Control
Sequence of LRRK2(G2019S) (Q5S007 whole entry G2019S): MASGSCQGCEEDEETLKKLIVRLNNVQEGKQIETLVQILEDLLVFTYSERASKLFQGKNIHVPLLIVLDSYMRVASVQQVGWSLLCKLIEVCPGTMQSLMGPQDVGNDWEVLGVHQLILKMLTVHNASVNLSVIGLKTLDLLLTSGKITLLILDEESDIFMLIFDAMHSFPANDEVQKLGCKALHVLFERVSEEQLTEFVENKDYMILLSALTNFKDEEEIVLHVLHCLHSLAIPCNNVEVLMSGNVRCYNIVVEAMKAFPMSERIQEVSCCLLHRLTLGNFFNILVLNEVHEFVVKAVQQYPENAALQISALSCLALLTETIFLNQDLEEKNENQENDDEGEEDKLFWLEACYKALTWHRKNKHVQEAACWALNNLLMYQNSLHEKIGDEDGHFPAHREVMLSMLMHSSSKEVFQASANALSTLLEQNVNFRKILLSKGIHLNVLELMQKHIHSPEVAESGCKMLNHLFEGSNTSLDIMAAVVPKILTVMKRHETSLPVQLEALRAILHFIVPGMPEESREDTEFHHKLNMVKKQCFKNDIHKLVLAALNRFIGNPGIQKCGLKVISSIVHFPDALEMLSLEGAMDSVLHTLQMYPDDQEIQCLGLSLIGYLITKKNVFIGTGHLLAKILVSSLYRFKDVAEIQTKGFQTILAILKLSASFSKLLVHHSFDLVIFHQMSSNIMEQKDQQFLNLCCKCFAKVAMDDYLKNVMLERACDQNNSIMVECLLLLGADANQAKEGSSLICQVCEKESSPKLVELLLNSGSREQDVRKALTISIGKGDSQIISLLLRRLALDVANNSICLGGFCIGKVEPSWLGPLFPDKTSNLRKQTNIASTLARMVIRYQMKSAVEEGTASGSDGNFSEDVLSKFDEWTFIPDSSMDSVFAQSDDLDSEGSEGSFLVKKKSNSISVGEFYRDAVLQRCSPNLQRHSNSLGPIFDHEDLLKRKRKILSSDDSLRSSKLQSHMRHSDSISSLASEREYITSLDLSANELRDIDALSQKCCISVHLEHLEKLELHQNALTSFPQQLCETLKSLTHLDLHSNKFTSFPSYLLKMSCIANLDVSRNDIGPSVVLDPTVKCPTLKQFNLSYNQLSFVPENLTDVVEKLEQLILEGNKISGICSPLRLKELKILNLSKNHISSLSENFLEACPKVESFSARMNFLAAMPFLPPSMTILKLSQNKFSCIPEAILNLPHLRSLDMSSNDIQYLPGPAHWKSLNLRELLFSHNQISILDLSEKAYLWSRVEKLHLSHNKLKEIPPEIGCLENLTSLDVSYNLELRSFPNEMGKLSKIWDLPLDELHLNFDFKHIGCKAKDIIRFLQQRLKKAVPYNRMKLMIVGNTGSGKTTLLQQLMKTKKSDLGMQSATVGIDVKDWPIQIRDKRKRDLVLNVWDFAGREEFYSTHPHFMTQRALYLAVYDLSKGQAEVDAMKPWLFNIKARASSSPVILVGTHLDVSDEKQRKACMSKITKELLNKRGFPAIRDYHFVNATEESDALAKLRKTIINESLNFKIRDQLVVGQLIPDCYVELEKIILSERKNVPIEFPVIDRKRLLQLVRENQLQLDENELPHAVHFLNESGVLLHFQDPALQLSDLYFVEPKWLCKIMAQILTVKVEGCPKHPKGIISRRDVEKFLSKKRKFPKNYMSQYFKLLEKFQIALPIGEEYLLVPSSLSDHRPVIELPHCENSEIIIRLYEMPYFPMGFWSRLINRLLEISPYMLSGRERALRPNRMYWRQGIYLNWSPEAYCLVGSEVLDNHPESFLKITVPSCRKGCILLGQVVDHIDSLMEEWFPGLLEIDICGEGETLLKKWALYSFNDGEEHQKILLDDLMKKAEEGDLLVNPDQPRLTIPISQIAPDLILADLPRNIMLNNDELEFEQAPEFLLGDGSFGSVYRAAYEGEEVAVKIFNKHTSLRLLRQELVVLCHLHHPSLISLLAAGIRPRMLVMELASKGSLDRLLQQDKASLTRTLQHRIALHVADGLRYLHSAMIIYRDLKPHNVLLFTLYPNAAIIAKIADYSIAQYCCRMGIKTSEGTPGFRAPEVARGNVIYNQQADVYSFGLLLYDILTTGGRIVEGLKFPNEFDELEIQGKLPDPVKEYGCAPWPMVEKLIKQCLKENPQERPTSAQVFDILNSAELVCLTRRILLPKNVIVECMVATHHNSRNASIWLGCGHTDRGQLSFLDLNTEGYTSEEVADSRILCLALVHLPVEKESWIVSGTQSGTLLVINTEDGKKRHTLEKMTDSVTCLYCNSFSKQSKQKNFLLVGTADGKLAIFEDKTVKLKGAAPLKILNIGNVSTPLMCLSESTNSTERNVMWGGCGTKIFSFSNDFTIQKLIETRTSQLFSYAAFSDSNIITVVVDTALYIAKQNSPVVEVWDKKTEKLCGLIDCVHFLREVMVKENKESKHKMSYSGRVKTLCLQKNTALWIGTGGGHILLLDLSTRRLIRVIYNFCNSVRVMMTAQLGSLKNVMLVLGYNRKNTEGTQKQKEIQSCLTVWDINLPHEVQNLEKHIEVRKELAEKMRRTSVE

LTK = LTK (Homo sapiens (Human), UniProt P29376); conditions: 10000 nM, read-out: Percent Control
MAP4K2 = MAP4K2 (Homo sapiens (Human), UniProt Q12851); conditions: MAP4K2, 10000 nM; read-out: Percent Control
NEK11 = NEK11 (Homo sapiens (Human), UniProt Q8NG66); conditions: NEK11, 10000 nM; read-out: Percent Control
PCTK1 = PCTK1 (Homo sapiens (Human), UniProt Q00536); conditions: PCTK1, 10000 nM; read-out: Percent Control
PFTAIRE2 = PFTAIRE2 (Homo sapiens (Human), UniProt Q96Q40); conditions: PFTAIRE2, 10000 nM; read-out: Percent Control
Sequence of PFTAIRE2 (Q96Q40 whole entry): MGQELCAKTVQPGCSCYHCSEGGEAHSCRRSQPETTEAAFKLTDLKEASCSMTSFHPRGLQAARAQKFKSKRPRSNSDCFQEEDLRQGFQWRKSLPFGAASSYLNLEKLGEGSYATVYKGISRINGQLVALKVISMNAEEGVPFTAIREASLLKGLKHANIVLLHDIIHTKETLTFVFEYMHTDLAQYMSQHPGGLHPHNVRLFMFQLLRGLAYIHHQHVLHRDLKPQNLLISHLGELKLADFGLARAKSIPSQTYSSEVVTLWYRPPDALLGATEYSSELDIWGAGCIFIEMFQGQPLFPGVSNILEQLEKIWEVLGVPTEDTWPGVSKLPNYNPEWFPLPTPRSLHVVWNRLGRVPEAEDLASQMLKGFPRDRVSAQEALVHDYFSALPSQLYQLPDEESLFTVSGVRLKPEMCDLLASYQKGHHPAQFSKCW

PKN2 = PKN2 (Homo sapiens (Human), UniProt Q16513); conditions: PKN2, 10000 nM; read-out: Percent Control
PKNB(M. tuberculosis) = PKNB(M. tuberculosis) (Mycobacterium tuberculosis (strain ATCC 25618 / H37Rv), UniProt P9WI81); conditions: read-out: Percent Control
PRKD1 = PRKD1 (Homo sapiens (Human), UniProt Q15139); conditions: PRKD1, 10000 nM; read-out: Percent Control
PYK2 = PYK2 (Homo sapiens (Human), UniProt Q14289); conditions: PYK2, 10000 nM; read-out: Percent Control
Sequence of PYK2 (Q14289 whole entry): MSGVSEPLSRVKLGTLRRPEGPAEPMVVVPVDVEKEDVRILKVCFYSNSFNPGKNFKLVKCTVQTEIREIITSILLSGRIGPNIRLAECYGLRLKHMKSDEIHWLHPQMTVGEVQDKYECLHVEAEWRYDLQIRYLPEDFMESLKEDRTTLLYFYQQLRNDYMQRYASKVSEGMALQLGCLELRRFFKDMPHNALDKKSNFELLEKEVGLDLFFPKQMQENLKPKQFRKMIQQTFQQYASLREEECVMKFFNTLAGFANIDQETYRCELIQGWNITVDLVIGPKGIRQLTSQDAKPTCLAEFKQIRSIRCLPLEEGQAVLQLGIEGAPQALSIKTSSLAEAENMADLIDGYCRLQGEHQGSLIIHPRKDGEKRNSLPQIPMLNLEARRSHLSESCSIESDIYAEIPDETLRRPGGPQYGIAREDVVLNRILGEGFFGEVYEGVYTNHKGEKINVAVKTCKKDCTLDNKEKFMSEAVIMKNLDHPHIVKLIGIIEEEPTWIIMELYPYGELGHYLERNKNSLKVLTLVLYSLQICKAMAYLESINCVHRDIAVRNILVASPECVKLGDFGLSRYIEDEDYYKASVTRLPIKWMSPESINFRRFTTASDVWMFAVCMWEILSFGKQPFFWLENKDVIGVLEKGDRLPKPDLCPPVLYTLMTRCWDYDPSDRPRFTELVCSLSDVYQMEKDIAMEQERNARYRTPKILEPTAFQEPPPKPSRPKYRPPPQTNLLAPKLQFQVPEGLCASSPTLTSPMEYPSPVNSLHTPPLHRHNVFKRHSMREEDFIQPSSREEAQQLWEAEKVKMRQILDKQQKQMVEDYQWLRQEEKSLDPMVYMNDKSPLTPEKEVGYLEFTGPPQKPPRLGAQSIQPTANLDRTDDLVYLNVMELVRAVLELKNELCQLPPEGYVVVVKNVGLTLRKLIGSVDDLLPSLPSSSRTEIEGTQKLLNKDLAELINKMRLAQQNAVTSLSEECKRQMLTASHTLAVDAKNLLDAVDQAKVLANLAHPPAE

ROCK2 = ROCK2 (Homo sapiens (Human), UniProt O75116); conditions: ROCK2, 10000 nM; read-out: Percent Control
TIE1 = TIE1 (Homo sapiens (Human), UniProt P35590); conditions: TIE1, 10000 nM; read-out: Percent Control
Sequence of TIE1 (P35590 22-1138): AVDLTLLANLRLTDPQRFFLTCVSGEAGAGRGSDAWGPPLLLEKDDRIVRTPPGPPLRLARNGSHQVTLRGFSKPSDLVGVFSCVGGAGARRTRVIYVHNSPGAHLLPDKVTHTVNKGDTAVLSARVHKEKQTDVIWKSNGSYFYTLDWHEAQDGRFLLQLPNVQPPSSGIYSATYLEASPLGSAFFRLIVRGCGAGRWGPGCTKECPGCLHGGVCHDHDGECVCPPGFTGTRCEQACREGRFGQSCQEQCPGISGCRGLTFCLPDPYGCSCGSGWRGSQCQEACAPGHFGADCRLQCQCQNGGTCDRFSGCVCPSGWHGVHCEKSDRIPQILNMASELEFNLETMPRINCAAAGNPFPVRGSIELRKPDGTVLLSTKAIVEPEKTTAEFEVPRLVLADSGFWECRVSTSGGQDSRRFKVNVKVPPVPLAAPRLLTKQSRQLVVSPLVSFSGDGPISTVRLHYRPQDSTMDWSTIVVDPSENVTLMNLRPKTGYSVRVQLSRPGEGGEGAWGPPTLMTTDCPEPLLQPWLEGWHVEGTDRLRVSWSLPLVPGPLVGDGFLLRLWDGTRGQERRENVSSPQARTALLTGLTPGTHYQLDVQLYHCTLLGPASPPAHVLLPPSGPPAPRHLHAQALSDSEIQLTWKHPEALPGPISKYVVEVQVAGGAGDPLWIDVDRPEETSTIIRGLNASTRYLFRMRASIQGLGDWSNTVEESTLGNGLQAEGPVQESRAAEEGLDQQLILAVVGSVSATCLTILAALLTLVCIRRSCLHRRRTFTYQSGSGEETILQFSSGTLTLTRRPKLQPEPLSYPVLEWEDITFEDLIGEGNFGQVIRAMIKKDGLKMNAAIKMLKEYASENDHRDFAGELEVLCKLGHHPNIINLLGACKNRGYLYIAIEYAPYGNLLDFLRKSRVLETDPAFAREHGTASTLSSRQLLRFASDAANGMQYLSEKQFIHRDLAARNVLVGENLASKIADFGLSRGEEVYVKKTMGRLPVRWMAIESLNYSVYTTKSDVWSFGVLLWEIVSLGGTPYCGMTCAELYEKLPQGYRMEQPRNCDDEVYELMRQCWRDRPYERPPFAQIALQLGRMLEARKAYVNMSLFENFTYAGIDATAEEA

TLK1 = TLK1 (Homo sapiens (Human), UniProt Q9UKI8); conditions: TLK1, 10000 nM; read-out: Percent Control
[2] = molecular target: TYK2(JH1domain-catalytic) (Homo sapiens (Human), UniProt P29597); conditions: 10000 nM, read-out: Percent Control
ZAP70 = ZAP70 (Homo sapiens (Human), UniProt P43403); conditions: ZAP70, 10000 nM; read-out: Percent Control

Structure (SMILES)	remaining binding at 10 µM [1] [%]	remaining binding at 10 µM (ADCK3) [%]	remaining binding at 10 µM (CDC2L1) [%]	remaining binding at 10 µM (CDC2L2) [%]	remaining binding at 10 µM (CDK5) [%]	remaining binding at 10 µM (CSNK1A1L) [%]	remaining binding at 10 µM (CSNK2A2) [%]	remaining binding at 10 µM (DCAMKL2) [%]	remaining binding at 10 µM (DMPK) [%]	remaining binding at 10 µM (EPHB1) [%]	remaining binding at 10 µM (EPHB6) [%]	remaining binding at 10 µM (FAK) [%]	remaining binding at 10 µM (INSRR) [%]	remaining binding at 10 µM (JNK2) [%]	remaining binding at 10 µM (KIT(A829P)) [%]	remaining binding at 10 µM (KIT(V559D)) [%]	remaining binding at 10 µM (KIT-autoinhibited) [%]	remaining binding at 10 µM (LIMK1) [%]	remaining binding at 10 µM (LRRK2(G2019S)) [%]	remaining binding at 10 µM (LTK) [%]	other results
COc1cc(N2CCC(N3CCN(C)CC3)CC2)ccc1Nc1ncc2c(n1)N(C)c1sc(C)nc1C(=O)N2 [Compound 3, 6-((2-methoxy-4-(4-(4-methylpiperazin-1-yl)piperidin-1-yl)phenyl)amino)-2,4-dimethyl-4,9-dihydro-10H-pyrimido[5,4-b]thiazolo[5,4-e][1,4]diazepin-10-one]	4.3	54	74	87	71	78	87	87	99	48	45	0.55	84	100	47	56	100	96	100	81	remaining binding at 10 µM (MAP4K2): 100%; remaining binding at 10 µM (NEK11): 100%; remaining binding at 10 µM (PCTK1): 100%; remaining binding at 10 µM (PFTAIRE2): 86%; remaining binding at 10 µM (PKN2): 100%; remaining binding at 10 µM (PKNB(M. tuberculosis)): 91%; remaining binding at 10 µM (PRKD1): 78%; remaining binding at 10 µM (PYK2): 41%; remaining binding at 10 µM (ROCK2): 100%; remaining binding at 10 µM (TIE1): 80%; remaining binding at 10 µM (TLK1): 90%; remaining binding at 10 µM [2]: 84%; remaining binding at 10 µM (ZAP70): 100%
COc1cc(N2CCC(N3CCN(C)CC3)CC2)ccc1Nc1ncc2c(n1)N(C)c1sc(C)nc1C(=O)N2C [Compound 5, 6-((2-methoxy-4-(4-(4-methylpiperazin-1-yl)piperidin-1-yl)phenyl)amino)-2,4,9-trimethyl-4,9-dihydro-10H-pyrimido[5,4-b]thiazolo[5,4-e][1,4]diazepin-10-one]	100	88	100	95	98	100	93	3	100	93	100	0.1	22	98	100	100	100	95	21	97	remaining binding at 10 µM (MAP4K2): 94%; remaining binding at 10 µM (NEK11): 100%; remaining binding at 10 µM (PCTK1): 100%; remaining binding at 10 µM (PFTAIRE2): 100%; remaining binding at 10 µM (PKN2): 100%; remaining binding at 10 µM (PKNB(M. tuberculosis); PKNB(M. tuberculosis), 10000 nM): 98%; remaining binding at 10 µM (PRKD1): 43%; remaining binding at 10 µM (PYK2): 85%; remaining binding at 10 µM (ROCK2): 100%; remaining binding at 10 µM (TIE1): 96%; remaining binding at 10 µM (TLK1): 81%; remaining binding at 10 µM [2]: 97%; remaining binding at 10 µM (ZAP70): 100%
